Starred links: 1 amine or outer side, 2 acyl side, 3 side chain; linkers in the order of their positions; H or OH if unused. Non-standard residues stand in square brackets, D forms with d. Residues, ends and D or L forms follow the SMILES beside them. No end group written: not given here. *: point of attachment. X1 = C/C=C(/C)C(=O)O[C@H]1C(C)=C2[C@H]([C@@H]1OC(=O)CCCCCCC)[C@@](C)(OC(C)=O)C[C@H](OC(=O)Cc1ccc(O)c(CCCCCN*)c1)[C@@]1(O)[C@H]2OC(=O)[C@@]1(C)O; γGlu = O=C(O)[C@H](CCC(=O)[*:2])N[*:1]; Morpholide = C1CN(*)CCO1; PhADT = not defined here; CO = O=C([*:1])[*:2]
Columns and labels:
[1] = system: CWR22H tumor; assay: Biodistribution in CWR22H tumor bearing mice; format: in vivo; settings: % Injected Dose/gram tissue, five days after single intravenous dose of 2 μmole (120 mg/kg) of prodrug
Method: FIGS. 4A and 4B are (A) selective accumulation of 12ADT-Asp and 12ADT-Asp-Glu in tumor tissue compared to indicated normal tissue five days after single intravenous dose of 2 μmole (120 mg/kg) (FIG. 4A discloses “Asp-Glu*Glu*Glu*Glu” as SEQ ID NO: 57); and (B) biodistribution of TG species (sum of 12ADT-Asp, 12ADT-Asp-Glu and 12ADT-Asp-Glu*Glu*Glu*Glu (SEQ ID NO: 57)) in CWR22H tumor bearing mice. Data presented as % Initial dose (ID)/gram and tumor/tissue ratios (n=4 mice).
In the course of developing a PSMA-activated TG therapy, a prodrug that was readily hydrolyzed by PSMA and selectively toxic to PSMA-producing human prostate cancers in vitro and in vivo was identified. Tissue levels of the TG analog (12ADT-Asp) that is released from the peptide carrier by PSMA were analyzed. See, for example, FIG. 4A.
The characterization of 12ADT-Asp is described in detail below. This TG analog is even more lipophilic than TG due to substitution of the butanoyl side chain of TG with a 12 carbon aminododecanoyl side chain. While it might have been expected to see accumulation of this highly lipophilic 12ADT-Asp in tumor tissue due to PSMA activation, the magnitude of accumulation of the free drug compared to plasma was unexpected. […]

[2] = Peptide stability to hydrolysis in human plasma; format: in vitro ADME
Text: (§1) Some preferred peptides include a PSMA-hydrolyzable, a-linked dipeptide “cap” that are not substrates for GGH, and are more specific PSMA substrates. Combination a- and side chain-linked PSMA substrates can be highly efficient and specific. […] A number of aspartate- and glutamate-containing linkers are depicted in FIG. 1. These particular linkers can be bonded to amine groups on therapeutic drugs.

[3] = Peptide stability to hydrolysis in mouse plasma; format: in vitro ADME
Text: as §1

[4] = biological target: sarcoplasmic reticulum (SR) and endoplasmic reticulum (ER) Ca2+-ATPase (SERCA) pump; settings: SERCA pump of skeletal, cardiac, muscle and brain microsomes; read-out: apparent dissociation constant; cited from earlier work
[5] = Peptide stability in serum; format: in vitro ADME
Text: as §1

[6] = system: SERCA; assay: SERCA inhibition compared to TG (preliminary / earlier data); format: biochemical
[7] = system: LNCaP cells; assay: Cleavage assay with LNCaP cells, metabolites by LC/MS; format: cell-based, human; settings: 3 days culture with drug
[8] = system: LNCaP cells
[9] = biological target: T1, SERCA pump (Oryctolagus cuniculus, UniProt P04191); assay: Microsomal assay of SERCA pump inhibition compared to TG; format: biochemical
T1 construct: from tissue; host or cells: microsomes
Method: FIG. 6. Microsomal assay comparing inhibition of SERCA pump by compound 14 and TG over a range of concentrations.
All materials were purified by column chromatography with structure confirmed by NMR analysis and mass spectroscopy. The purified phenolic TG analog 14 was then tested in a previously described microsomal assay system to assess inhibition of the SERCA pump compared to TG, FIG. 6.

T1 sequence (P04191 1-994 isoform P04191-2): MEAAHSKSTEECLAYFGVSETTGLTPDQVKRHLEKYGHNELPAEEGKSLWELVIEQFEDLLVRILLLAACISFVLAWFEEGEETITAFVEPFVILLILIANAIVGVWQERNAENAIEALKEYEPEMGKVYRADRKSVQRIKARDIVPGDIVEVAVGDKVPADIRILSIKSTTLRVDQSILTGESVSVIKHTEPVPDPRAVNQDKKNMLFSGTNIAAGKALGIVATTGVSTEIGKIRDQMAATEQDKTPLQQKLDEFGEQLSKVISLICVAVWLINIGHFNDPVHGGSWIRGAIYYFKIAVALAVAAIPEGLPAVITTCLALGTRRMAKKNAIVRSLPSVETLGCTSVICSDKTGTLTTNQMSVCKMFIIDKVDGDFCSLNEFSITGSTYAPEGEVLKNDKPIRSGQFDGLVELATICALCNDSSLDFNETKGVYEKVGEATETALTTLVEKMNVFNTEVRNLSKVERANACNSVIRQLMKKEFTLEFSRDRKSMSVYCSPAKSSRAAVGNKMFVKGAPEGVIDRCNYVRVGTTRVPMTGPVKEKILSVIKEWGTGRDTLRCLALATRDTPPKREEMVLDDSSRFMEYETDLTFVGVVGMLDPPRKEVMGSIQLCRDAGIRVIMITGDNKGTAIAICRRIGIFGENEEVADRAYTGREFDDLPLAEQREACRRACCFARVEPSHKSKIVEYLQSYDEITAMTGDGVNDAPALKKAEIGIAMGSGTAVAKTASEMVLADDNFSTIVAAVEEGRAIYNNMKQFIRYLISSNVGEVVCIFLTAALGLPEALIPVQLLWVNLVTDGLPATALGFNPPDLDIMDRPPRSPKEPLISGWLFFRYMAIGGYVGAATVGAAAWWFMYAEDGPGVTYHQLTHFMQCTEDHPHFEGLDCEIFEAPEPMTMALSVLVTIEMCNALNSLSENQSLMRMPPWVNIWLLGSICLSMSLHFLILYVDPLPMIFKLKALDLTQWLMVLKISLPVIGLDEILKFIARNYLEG

## C/C=C(/C)C(=O)O[C@H]1C(C)=C2[C@H]([C@@H]1OC(=O)CCCCCCC)[C@@](C)(OC(C)=O)C[C@H](OC(=O)CCCCCCCCCCCNC(=O)C[C@H](N)C(=O)O)[C@@]1(O)[C@H]2OC(=O)[C@@]1(C)O [12ADT-Asp]
[1]
  Tumor/Kidney ratio: 15.4
  Tumor/Skeletal muscle ratio: 20.5

## N[C@@H](CC(=O)O)C(=O)N[C@@H](CCC(=O)N[C@@H](CCC(=O)N[C@@H](CC(=O)O)C(=O)N[C@@H](CCC(=O)O)C(=O)O)C(=O)O)C(=O)O [Asp-Glu*Glu*Asp-Glu] (H-D[γGlu][γGlu]DE-OH; N-terminus and C-terminus assumed)
[2]
  stability to hydrolysis in plasma: completely stable to hydrolysis
[3]
  stability to hydrolysis in plasma: completely stable to hydrolysis

## C/C=C(/C)C(=O)O[C@H]1C(C)=C2[C@H]([C@@H]1OC(=O)CCCCCCC)[C@@](C)(OC(C)=O)C[C@H](OC(=O)CCC)[C@@]1(O)[C@H]2OC(=O)[C@@]1(C)O [Thapsigargin]
[4]
  Kd: ≤ 0.0022 nM

## NC(=O)CC[C@H](NC(=O)[C@H](CC(=O)O)NC(=O)CC[C@H](NC(=O)CC[C@H](NC(=O)CC[C@H](N)C(=O)O)C(=O)O)C(=O)O)C(=O)O [Glu*Glu*Glu*Asp-Gln] ({γGlu-γGlu-γGlu}-Asp-Gln-OH; N-terminus and C-terminus assumed)
[5]
  stability in serum: high stability in serum

## C/C=C(/C)C(=O)O[C@H]1C(C)=C2[C@H]([C@@H]1OC(=O)CCCCCCC)[C@@](C)(OC(C)=O)C[C@H](OC(=O)CCCCCCCCCCCN)[C@@]1(O)[C@H]2OC(=O)[C@@]1(C)O [12ADT]
[6]
  SERCA inhibition compared to TG: as efficiently as does TG

## (PhADT)-Glu-yGlu-yGlu-yGlu (PhADT-E[γGlu][γGlu][γGlu]; reading uncertain) [JHD9783]
[7]
  cleavage of pro-drug by LNCaP cells: can cleave

## C/C=C(/C)C(=O)O[C@H]1C(C)=C2[C@H]([C@@H]1OC(=O)CCCCCCC)[C@@](C)(OC(C)=O)C[C@H](OC(=O)Cc1ccc(O)c(CCCCCNC(=O)[C@H](CC(C)C)NC(=O)[C@H](CCC(N)=O)NC(=O)[C@H](CC(C)C)NC(=O)[C@H](CCCCN)NC(=O)[C@H](CO)NC(=O)[C@H](CO)NC(=O)[C@H](Cc3c[nH]cn3)NC(=O)N3CCOCC3)c1)[C@@]1(O)[C@H]2OC(=O)[C@@]1(C)O [JHD9784, His-Ser-Ser-Lys-Leu-Gln-Leu-(PhADT)] ({Morpholide-CO}-HSSKLQL-X1)
[7]
  cleavage of pro-drug by LNCaP cells: can cleave
[8]
  IC50: 2.5 nM

## N[C@@H](CCC(=O)N[C@@H](CCC(=O)N[C@@H](CCC(=O)N[C@@H](CC(=O)O)C(=O)N[C@@H](CCC(=O)O)C(=O)O)C(=O)O)C(=O)O)C(=O)O [Glu*Glu*Glu*Asp-Glu] ({γGlu-γGlu-γGlu}-Asp-Glu-OH; N-terminus and C-terminus assumed)
[5]
  stability in serum: high stability in serum

## C/C=C(/C)C(=O)OC1C(C)=C2[C@H]([C@@H]1OC(=O)CCCCCCC)[C@@](C)(OC(C)=O)CC(OC(=O)CCc1cc(I)c(O)c(CCCCCNC(=O)OC(C)(C)C)c1)[C@@]1(O)[C@H]2OC(=O)[C@@]1(C)O (stereo partly shown) [compound 14]
[9]
  ability to inhibit the SERCA pump: maintained potent ability to inhibit the SERCA pump at nanomolar concentrations
[9]; range of concentrations, compared to TG
  potency of SERCA pump inhibition relative to TG (fold less potent): approximately 4 fold

Reference: patent US8772226B2, “Methods and compositions for the detection of cancer” (The Johns Hopkins University, priority 2009, dated 2014)
